Experimental data: patent publication US12466810B2, “N-(5-(6-ethoxypyrazin-2-yl)pyridin-2-yl)-4-(2-(methylsulfonamido)pyrimidin-4-yl) tetrahydro-2H-pyran-4-carboxamide derivatives and related compounds as human CTPS1 inhibitors for the treatment of proliferative diseases” (Step Pharma S.A.S., priority 2019, dated 2025)

Legend:
human CTPS1 = target: T1, human CTPS1 (Homo sapiens, UniProt P17812); test: Human CTPS1 enzyme inhibition (ADP-Glo Max assay); format: biochemical; conditions: 25° C., read-out: Human CTPS1 Enzyme Inhibition IC50, grouped by potency range
T1 construct: FLAG (GG linker + DYKDDDDK); His8 (GG linker + HHHHHHHH); purchased Proteros biostructures GmbH
T1 sequence (P17812 1-591): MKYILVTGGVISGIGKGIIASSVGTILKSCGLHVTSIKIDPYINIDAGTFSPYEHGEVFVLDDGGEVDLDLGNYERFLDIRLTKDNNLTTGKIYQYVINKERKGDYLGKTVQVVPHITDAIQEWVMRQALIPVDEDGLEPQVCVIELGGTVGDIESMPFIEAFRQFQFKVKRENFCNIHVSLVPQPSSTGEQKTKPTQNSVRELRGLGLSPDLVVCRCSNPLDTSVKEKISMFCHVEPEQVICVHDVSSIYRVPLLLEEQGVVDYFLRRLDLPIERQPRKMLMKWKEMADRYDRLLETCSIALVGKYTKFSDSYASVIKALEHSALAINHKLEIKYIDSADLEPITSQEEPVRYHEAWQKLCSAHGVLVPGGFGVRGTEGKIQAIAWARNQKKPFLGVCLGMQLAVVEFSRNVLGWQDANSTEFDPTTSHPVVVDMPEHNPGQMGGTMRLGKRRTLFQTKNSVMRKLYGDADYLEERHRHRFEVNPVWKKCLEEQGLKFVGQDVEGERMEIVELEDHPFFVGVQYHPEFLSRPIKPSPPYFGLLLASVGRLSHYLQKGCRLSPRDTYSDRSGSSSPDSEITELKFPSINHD
Description: The enzyme inhibitory activities of compounds invented against the target of interest were determined using the ADP-Glo™ Max assay (Promega, UK). Assays for human CTPS1 were performed in 1× assay buffer containing 50 mM Tris, 10 mM MgCl2, 0.01% Tween-20, pH to 8.0 accordingly. Finally, immediately before use, L-cysteine was added to the 1× assay buffer to a final concentration of 2 mM. All reagents are from Sigma-Aldrich unless specified otherwise.
Human full length active C-terminal FLAG-Hiss-tag CTPS1 (UniProtKB—P17812, CTPS1[1-591]-[…] (CTPS1[1-591]-SEQ ID NO: 1)) was obtained from Proteros biostructures GmbH.
3× human CTPS1 protein was prepared in 1× assay buffer to the final working protein concentration required for the reaction. A 2 uL volume per well of 3× human CTPS1 protein was mixed with 2 uL per well of 3× test compound (compound prepared in 1× assay buffer to an appropriate final 3× compound concentration respective to the concentration response curve designed for the compounds under test) for 10 minutes at 25° C. The enzymatic reaction was then initiated by addition of a 2 uL per well volume of a pre-mixed substrate mix (UltraPure ATP from ADP-GIo™ Max kit (0.31 mM), GTP (0.034 mM), UTP (0.48 mM) and L-glutamine (0.186 mM)) and the mixture was incubated for an appropriate amount of time within the determined linear phase of the reaction at 25° C. under sealed plate conditions with constant agitation at 500 revolutions per minute (rpm). ADP-GIo™ Max reagent was added for 60 minutes (6 μL per well) and subsequently ADP-GIo™ Max development reagent was added for 60 minutes (12 uL per well) prior to signal detection in a microplate reader (EnVision® Multilabel Reader, Perkin Elmer). Following each reagent addition over the course of the assay, assay plates were pulse centrifuged for 30 seconds at 500 rpm.
In all cases, the enzyme converts ATP to ADP and the ADP-Glo™ Max reagent subsequently depletes any remaining endogenous ATP in the reaction system. The ADP-Glo™ Max detection reagent converts the ADP that has been enzymatically produced back into ATP and using ATP as a substrate together with luciferin for the enzyme luciferase, light is generated which produces a detectable luminescence. […] The percentage inhibition produced by each concentration of compound was calculated using the equation shown below: […]
(§1) Percentage inhibition was then plotted against compound concentration, and the 50% inhibitory concentration (IC50) was determined from the resultant concentration-response curve.

Human CTPS1 Versus CTPS2 = test: RapidFire/MS-based enzyme selectivity assay, human CTPS1 versus CTPS2; format: biochemical; conditions: RapidFire/MS IC50s
Description: Human CTPS1 Versus CTPS2 Selectivity Assessment by RapidFire/MS Analysis.
The enzyme inhibitory activities against each target isoform of interest may be determined for the compounds of the invention using an optimised RapidFire high-throughput mass spectrometry (RF/MS) assay format. RF/MS assays for both human CTPS1 and CTPS2 may be performed in assay buffer consisting of 50 mM HEPES (Merck), 20 mM MgCl2, 5 mM KCl, 1 mM DTT, 0.01% Tween-20, pH to 8.0 accordingly. Human full-length active C-terminal FLAG-His-tag CTPS1 (UniProtKB—P17812, CTPS1[1-591]-[…] (CTPS1[1-591]-SEQ ID NO: 1)) may be obtained from Proteros biostructures GmbH. Human full length active C-terminal FLAG-His-Avi tagged CTPS2 (UniProtKB—Q9NRF8, CTPS2 [1-586]—[…] (CTPS2 [1-586]-SEQ ID NO: 2)) may be obtained from Harker Bio.
Human CTPS (1 or 2) protein may be prepared in 1× assay buffer to the final working protein concentration required for the reaction. A 2 uL volume per well of 2×CTPS (1 or 2) protein may be mixed with 40 nL of compound using acoustic (ECHO) delivery and incubated for 10 minutes at 25° C. Each isoform enzymatic reaction may be subsequently initiated by addition of 2 uL per well of a 2× substrate mix in assay buffer. For hCTPS1: ATP (0.3 mM), UTP (0.2 mM), GTP (0.07 mM) and L-glutamine (0.1 mM). For hCTPS2: ATP (0.1 mM), UTP (0.04 mM), GTP (0.03 mM) and L-glutamine (0.1 mM). Each mixture may be incubated for an appropriate amount of time per isoform within the determined linear phase of the reaction at 25° C. A 60 uL volume of stop solution (1% formic acid with 0.5 uM ^13C9-^15N3-CTP in H2O) may be added and the plate immediately heat-sealed and centrifuged for 10 minutes at 4,000 rpm. Following centrifugation, plates may be loaded onto the Agilent RapidFire microfluidic solid phase extraction system coupled to an API4000 triple quadrupole mass spectrometer (RF/MS) for analysis.
In all cases, the enzyme converts UTP to CTP. Highly specific and sensitive multiple reaction monitoring (MRM) MS methods may be optimised for the detection of the enzymatic reaction product, CTP, and the stable isotope labelled product standard ^13C-^15N-CTP. Readout for data analysis may be calculated as the ratio between the peak area of the product CTP and the internal standard […]. For data reporting, the following equation may be used: […]
For each screening plate, the means of the negative (DMSO) and positive control values were used for the calculation of the respective assay window (S/B) and Z′ values. The median of the respective control values was used for calculation of percent inhibition according to the following equation: […]
as §1
Fold selectivity between CTPS1 and CTPS2 was subsequently calculated according to the following equation: […]

SMILES	IC50 (human CTPS1) [nM]	Fold selectivity between CTPS1 and CTPS2 (CTPS1) (Human CTPS1 Versus CTPS2)
CCOc1cncc(-c2ccc(NC(=O)C3(c4ccnc(NS(=O)(=O)C5CC5)n4)CCCCC3)nc2)n1 [P237, 1-(2-(cyclopropanesulfonamido)pyrimidin-4-yl)-N-(5-(6-ethoxypyrazin-2-yl)pyridin-2-yl)cyclohexane-1-carboxamide]	≤ 100	+++ (>60 fold (+++))
CCOc1cncc(-c2ccc(C(=O)NC3(c4ccnc(NS(=O)(=O)C5CC5)n4)CC3)nc2)n1 [P257, N-(1-(2-(cyclopropanesulfonamido)pyrimidin-4-yl)cyclopropyl)-5-(6-ethoxypyrazin-2-yl)picolinamide]	100 to 1000	–
CCOc1cncc(-c2ccc(NC(=O)C3(c4ccnc(NS(=O)(=O)C5CC5)n4)CCS(=O)(=O)CC3)nc2)n1 [P259, 4-(2-(cyclopropanesulfonamido)pyrimidin-4-yl)-N-(5-(6-ethoxypyrazin-2-yl)pyridin-2-yl)tetrahydro-2H-thiopyran-4-carboxamide 1,1-dioxide]	≤ 100	–
CCOc1cncc(-c2ccc(NC(=O)C3(c4ccnc(NS(=O)(=O)C5CC5)n4)CCC3)nc2)n1 [P241, 1-(2-(cyclopropanesulfonamido)pyrimidin-4-yl)-N-(5-(6-ethoxypyrazin-2-yl)pyridin-2-yl)cyclobutane-1-carboxamide]	≤ 100	+++ (>60 fold (+++))
CCOc1cncc(-c2ccc(NC(=O)C3(c4ccnc(NS(C)(=O)=O)n4)CCOCC3)nc2)n1 [P236, N-(5-(6-ethoxypyrazin-2-yl)pyridin-2-yl)-4-(2-(methylsulfonamido)pyrimidin-4-yl)tetrahydro-2H-pyran-4-carboxamide]	≤ 100	+++ (>60 fold (+++))
CCOc1cncc(-c2ccc(NC(=O)C3(c4ccnc(NS(C)(=O)=O)n4)CCCCC3)nc2)n1 [P238, N-(5-(6-ethoxypyrazin-2-yl)pyridin-2-yl)-1-(2-(methylsulfonamido)pyrimidin-4-yl)cyclohexane-1-carboxamide]	≤ 100	+++ (>60 fold (+++))
CCOc1cncc(-c2ccc(NC(=O)C3(c4ccnc(NS(=O)(=O)C5CC5)n4)CCN(C(C)C)CC3)nc2)n1 [P232, 4-(2-(Cyclopropanesulfonamido)pyrimidin-4-yl)-N-(5-(6-ethoxypyrazin-2-yl)pyridin-2-yl)-1-isopropylpiperidine-4-carboxamide]	100 to 1000	+++ (>60 fold (+++))
CCOc1cncc(-c2ccc(NC(=O)C3(c4ccnc(NS(=O)(=O)C5CC5)n4)CCN(C(=O)NC(C)C)CC3)nc2)n1 [P233, 4-(2-(Cyclopropanesulfonamido)pyrimidin-4-yl)-N4-(5-(6-ethoxypyrazin-2-yl)pyridin-2-yl)-N1-isopropylpiperidine-1,4-dicarboxamide]	≤ 100	+++ (>60 fold (+++))
CCOc1cncc(-c2ccc(NC(=O)C3(c4nccc(NS(=O)(=O)C5CC5)n4)CCOCC3)nc2)n1 [P243, 4-(4-(cyclopropanesulfonamido)pyrimidin-2-yl)-N-(5-(6-ethoxypyrazin-2-yl)pyridin-2-yl)tetrahydro-2H-pyran-4-carboxamide]	≤ 100	+++ (>60 fold (+++))
CCOc1cncc(-c2ccc(NC(=O)C3(c4ccnc(NS(=O)(=O)C5CC5)n4)CCN(C(C)=O)CC3)nc2)n1 [P234, 1-Acetyl-4-(2-(cyclopropanesulfonamido)pyrimidin-4-yl)-N-(5-(6-ethoxypyrazin-2-yl)pyridin-2-yl)piperidine-4-carboxamide]	≤ 100	+++ (>60 fold (+++))
CCOc1cncc(-c2ccc(NC(=O)C3(c4ccnc(NS(=O)(=O)CC)n4)CCOCC3)nc2)n1 [P262, N-(5-(6-ethoxypyrazin-2-yl)pyridin-2-yl)-4-(2-(ethylsulfonamido)pyrimidin-4-yl)tetrahydro-2H-pyran-4-carboxamide]	≤ 100	–
CCOc1cncc(-c2ccc(NC(=O)C3(c4nccc(NS(=O)(=O)C5CC5)n4)CCN(C)CC3)nc2)n1 [P319, 4-(4-(cyclopropanesulfonamido)pyrimidin-2-yl)-N-(5-(6-ethoxypyrazin-2-yl)pyridin-2-yl)-1-methylpiperidine-4-carboxamide]	≤ 100	+++ (>60 fold (+++))
CCOc1cncc(-c2ccc(NC(=O)C3(c4ccnc(NS(=O)(=O)CC5CC5)n4)CCOCC3)nc2)n1 [P263, 4-(2-(cyclopropylmethylsulfonamido)pyrimidin-4-yl)-N-(5-(6-ethoxypyrazin-2-yl)pyridin-2-yl)tetrahydro-2H-pyran-4-carboxamide]	100 to 1000	–
CCOc1cncc(-c2ccc(C(=O)NC3(c4ccnc(NS(=O)(=O)C5CC5)n4)CCOCC3)nc2)n1 [P249, N-(4-(2-(cyclopropanesulfonamido)pyrimidin-4-yl)tetrahydro-2H-pyran-4-yl)-5-(6-ethoxypyrazin-2-yl)picolinamide]	100 to 1000	+++ (>60 fold (+++))
CCOc1cncc(-c2ccc(NC(=O)C3(c4ccnc(NS(=O)(=O)C5CCCC5)n4)CCOCC3)nc2)n1 [P245, 4-(2-(cyclopentanesulfonamido)pyrimidin-4-yl)-N-(5-(6-ethoxypyrazin-2-yl)pyridin-2-yl)tetrahydro-2H-pyran-4-carboxamide]	100 to 1000	+++ (>60 fold (+++))
